One block for each compound: values may come before it.
Legend:
[1] = Survival analysis (Kaplan-Meier, PFS and OS); assay type: in vivo, human; settings: real-world cancer patients with TDM
Description: (§1) Patients’ medical records were reviewed with the aim of studying all possible factors related to the patient and the medication that may influence the evolution of the plasma concentrations of TKIs. Sociodemographic and anthropometric, pharmacological treatment, clinical, toxicity and therapeutic drug monitoring data were collected. Treatment response was determined according to the […]. Adverse events were recorded by grade according to the Common Terminology Criteria for Adverse Events version 3.0 (CTCAE v 3.0).
To assess the relationship between treatments protocols and disease progression or mortality, a Kaplan–Meier survival curve was plotted.

[2] = TDM-guided dose adjustment recommendations per monitored cycle; assay type: in vivo, human; settings: for monitored cycles with recommendation to decrease the dose: concentrations above therapeutic range; for monitored cycles with recommendation to increase the prescribed dose: concentrations below target therapeutic range; for monitored cycles with recommendation to maintain the current dose: concentrations within therapeutic range; for monitored cycles with recommendation to suspend/suppress the drug: in vivo
Description: Patients included in this study received drugs at doses previously established by their doctors, according to data sheet indications and clinical judgment. In all cases, drug dose was prescribed before the patient enrolled onto this study and was not affected by this study prior to enrollment.
(§2) Monitoring was carried out in all cases after at least fifteen days from the start of treatment, when the plasma levels of the drug were considered at steady state. Blood samples were extracted just before ingestion of the tablet/s and at different times after ingestion. The drug was administered in the fasted state and patients were told they could eat food after the second blood sample was drawn. Sampling times, which are defined for each drug in Table 1, were selected based on the optimal sampling theory and pharmacokinetic models previously published in the scientific literature. […] The total blood volume extracted was between 4 and 5 mL for each sample. All samples were centrifuged after extraction at 3500 r.p.m. for 10 min at room temperature and the plasma obtained was frozen at −80 °C until bioanalysis.

[3] = Groups of patients according to exposure and toxicity; assay type: in vivo, human; settings: for % patients, Group 1 / % patients, Group 3: Drug concentrations above target level: No; for % patients, Group 1 / % patients, Group 2: Toxicities: No; for % patients, Group 3 / % patients, Group 4: Toxicities: Yes; for % patients, Group 2 / % patients, Group 4: Drug concentrations above target level: Yes
[4] = cited from earlier work
[5] = Therapeutic drug monitoring: plasma levels by HPLC-UV, dose-normalized plasma concentrations; assay type: in vivo, human
Description: as §2
Bioanalysis was carried out using high-performance liquid chromatography (HPLC) coupled with ultraviolet (UV) detection.
As the stationary phase, an Ultrabase® C18 chromatographic column, 4.6 mm in diameter by 150 mm in length, made of stainless steel and filled with a C18 reversed-phase siliceous substrate with a particle size of 5 µm, was used. A mixture of 40% of 0.02 M ammonium acetate, pH = 7, and 60% acetonitrile: methanol at a ratio of 70:30 (v/v) was used as the mobile phase. The linearity of the technique included a concentration range of 0.05–7.5 µg/mL. The limit of quantification was 0.5 µg/mL. Solid–liquid extraction was used and the analysis time was 9 min.
The stationary phase used was an Ultrabase® C18 chromatographic column, 4.6 mm in diameter by 150 mm in length, made of stainless steel and filled with a C18 reversed-phase siliceous substrate with a particle size of 5 µm. The mobile phase used was a 40% mixture of 0.02 M ammonium acetate, pH = 7, and 60% acetonitrile: methanol at a ratio of 70:30 (v/v). The linearity of the technique included a concentration range of 0.05–5 µg/mL. The limit of quantification was 0.5 µg/mL. Solid–liquid extraction was used and the analysis time was 10 min.
(§3) The stationary phase used was a Kromasil® C18 chromatographic column, 4.6 mm in diameter by 150 mm in length, made of stainless steel and filled with a C18 reversed-phase siliceous substrate with a particle size of 5 µm. The mobile phase used was a mixture of acetonitrile and 0.02 M ammonium acetate, pH = 3.5, at a ratio of 53:47 (v/v). The linearity of the technique included a concentration range of 0.02–10 µg/mL. The limit of quantification was 0.2 µg/mL. Liquid–liquid extraction was used and the analysis time was 12 min [51].
as §3, with “0.1–20” for “0.02–10”, “0.1” for “0.2”, “[52].” for “[51].”
The program was compiled with the DIGITAL Visual Fortran version 6.6C program. The graphics were made with the S-Plus 6.1 Professional Edition program for Windows (Insightful, Seattle, WA, USA). A one-compartment pharmacokinetic model with first-order absorption and elimination kinetics was selected to describe erlotinib plasma concentrations, as performed previously by other authors. The fixed-effect parameters estimated by the model were V (volume of distribution, L), CL (plasma clearance, L/h) and Ka (absorption constant). The model included plasma ALT concentration and age as covariates in CL, and weight in V.
The model was parameterized in terms of D1 (zero-order absorption duration), V and CL, and included the plasma concentration of α 1-acid glycoprotein as a covariate in CL. […]

[6] = Incidence of toxicity (CTCAE grades), first vs last monitored cycle; assay type: in vivo, human; settings: for Patients with toxicity: at start of treatment; for Toxicity: RI G1: renal insufficiency grade 1 (IR G1 for sorafenib); for Toxicity: RI G2: renal insufficiency grade 2
Description: as §1
To compare the variation in categorical variables (rash, diarrhea, fatigue, abdominal pain, hypertension, and mucositis) between the first and the last monitored cycle, the non-parametric chi-square test was performed.

[7] = cited from earlier work; remark: listed apart in the source
[8] = last monitored cycle, after TDM and dose adjustments
[9] = phase II study of 57 NSCLC patients
[10] = last monitored cycle, after TDM and dose adjustment

SMILES: CS(=O)(=O)CCNCc1ccc(-c2ccc3ncnc(Nc4ccc(OCc5cccc(F)c5)c(Cl)c4)c3c2)o1 [Lapatinib, lapatinib]
Overall Survival, Median [1]: 46 Months | Progression-Free Survival, Median [1]: 8 Months | monitored cycles with recommendation to decrease the dose [2]: 8.6% | monitored cycles with recommendation to increase the prescribed dose [2]: 14.3% | monitored cycles with recommendation to maintain the current dose [2]: 68.6% | monitored cycles with recommendation to suspend/suppress the drug [2]: 8.6% | % patients, Group 1 [3]: 6.2% | % patients, Group 3 [3]: 18.7% | % patients, Group 2 [3]: 6.2% | % patients, Group 4 [3]: 69.5% | increase in AUC with high-fat meals [4]: more than 3 fold | interpatient variability in exposure, AUC [4]: 42–117% | interpatient variability in exposure, Ctrough [4]: 55–97% | t1/2 in severe liver failure relative to normal liver function [4]: 3 fold | increase of mean AUC in patients with severe liver failure ([4]; vs normal liver function): more than 60% | mean interpatient variability in dose-normalized plasma concentrations (CV) ([5]; first monitored cycle): 60.7% | mean interpatient variability in dose-normalized plasma concentrations (CV) [5, 8]: 56% | toxicities detected ([6]; after performing TDM): 5 cases | Patients with toxicity [6]: 12 (75.0) n. (%) | toxicities detected ([6]; first monitored cycle): 25 cases | reduction of toxicity events by TDM ([6]; first vs last monitored cycle): 80% | Toxicity: Anemia G1 ([6]; in vivo): 3 (18.7) n. (%) | Toxicity: Anemia G2 ([6]; in vivo): 2 (12.5) n. (%) | Toxicity: Anemia G3 ([6]; in vivo): 1 (6.2) n. (%) | Toxicity: Diarrhea G1 ([6]; in vivo): 2 (12.5) n. (%) | Toxicity: Diarrhea G2 ([6]; in vivo): 1 (6.2) n. (%) | Toxicity: Diarrhea G3 ([6]; in vivo): 1 (6.2) n. (%) | Toxicity: Mucositis G3 ([6]; in vivo): 1 (6.2) n. (%) | Toxicity: Pain ([6]; in vivo): 2 (12.5) n. (%) | Toxicity: Skin rash G1 ([6]; in vivo): 1 (6.2) n. (%) | Toxicity: Skin rash G3 ([6]; in vivo): 1 (6.2) n. (%) | analytical parameters related to toxicity and defined toxicities, first vs last monitored cycle ([6]; in vivo): no significant differences | patients who developed toxicity at the start of treatment ([6]; in vivo): 75% | Toxicity: Neutr. G3 ([6]; neutropenia grade 3): 2 (12.5) n. (%) | Toxicity: RI G1 [6]: 6 (37.5) n. (%) | Toxicity: RI G2 [6]: 2 (12.5) n. (%)

SMILES: Cc1ccc(Nc2nccc(N(C)c3ccc4c(C)n(C)nc4c3)n2)cc1S(N)(=O)=O [pazopanib]
AUC when administered with food compared to fasted state [4]: doubled | dose above which plasma AUC does not increase ([4]; solubility limitations in the digestive tract): greater than 800 mg

SMILES: Cc1cn(-c2cc(NC(=O)c3ccc(C)c(Nc4nccc(-c5cccnc5)n4)c3)cc(C(F)(F)F)c2)cn1 [nilotinib]
increase in AUC with high-fat meals [4]: up to 80%

mean interpatient variability in dose-normalized plasma concentrations (CV) ([5]; first monitored cycle): 48.91% | mean interpatient variability in dose-normalized plasma concentrations (CV) ([5]; first monitored cycle, listed as imatinib): 48.9% | mean interpatient variability in dose-normalized plasma concentrations (CV) [5, 8]: 50.84% | mean interpatient variability in dose-normalized plasma concentrations (CV) ([5]; last monitored cycle, after TDM and dose adjustments, listed as imatinib): 50.8%
SMILES: Cc1ccc(NC(=O)c2ccc(CN3CCN(C)CC3)cc2)cc1Nc1nccc(-c2cccnc2)n1 [Imatinib, imatinib]

SMILES: C#Cc1cccc(Nc2ncnc3cc(OCCOC)c(OCCOC)cc23)c1 [Erlotinib, erlotinib]
Overall Survival, Median [1]: 32 Months | Progression-Free Survival, Median [1]: 8 Months | monitored cycles with recommendation to decrease the dose [2]: 3.6% | monitored cycles with recommendation to increase the prescribed dose [2]: 38.2% | monitored cycles with recommendation to maintain the current dose [2]: 54.5% | monitored cycles with recommendation to suspend/suppress the drug [2]: 3.6% | % patients, Group 1 [3]: 18.2% | % patients, Group 3 [3]: 22.7% | % patients, Group 2 [3]: 13.6% | % patients, Group 4 [3]: 45.5% | fraction of a single dose eliminated in the urine [4]: 9% | patients with plasma concentrations below the target ([4]; target 500 mg/L, lung cancer patients): 11.1% | mean interpatient variability in dose-normalized plasma concentrations (CV) ([5]; first monitored cycle): 46.2% | mean interpatient variability in dose-normalized plasma concentrations (CV) [5, 8]: 44% | Patients with toxicity [6]: 9 (45.4) n. (%) | patients with grade 2 skin rash ([6]; first monitored cycle): 13.6% | patients with grade 3 mucositis ([6]; first monitored cycle): 4.5% | patients with grade 3 thrombocytopenia ([6]; first monitored cycle): 4.5% | Toxicity: Anemia G1 ([6]; in vivo): 4 (18.1) n. (%) | Toxicity: Anemia G2 ([6]; in vivo): 2 (9.1) n. (%) | Toxicity: Diarrhea G2 ([6]; in vivo): 3 (13.6) n. (%) | Toxicity: Fatigue G2 ([6]; in vivo): 2 (9.1) n. (%) | Toxicity: Mucositis G3 ([6]; in vivo): 1 (4.5) n. (%) | Toxicity: Skin rash G1 ([6]; in vivo): 5 (22.7) n. (%) | Toxicity: Skin rash G2 ([6]; in vivo): 3 (13.6) n. (%) | Toxicity: Skin rash G3 ([6]; in vivo): 3 (13.6) n. (%) | analytical parameters related to toxicity and defined toxicities, first vs last monitored cycle ([6]; in vivo): no significant differences | patients who developed toxicity at the start of treatment ([6]; in vivo): 45.4% | patients with grade 2 skin rash ([6]; last monitored cycle): 14.3% | patients with grade 3 mucositis ([6]; last monitored cycle): 0% | patients with grade 3 rash ([6]; last monitored cycle): 7.1% | patients with grade 3 thrombocytopenia ([6]; last monitored cycle): 0% | Toxicity: RI G1 [6]: 9 (45.4) n. (%) | Toxicity: RI G2 [6]: 4 (18.1) n. (%) | Toxicity: Thromb. G3 ([6]; trombopenia grade 3): 1 (4.5) n. (%) | OS ([7]; 26 NSCLC patients): 16.9 months | PFS ([7]; 26 NSCLC patients): 6.3 months | OS of patients with grade 1 rash [7, 9]: 8.5 months | OS of patients with grade 2 rash [7, 9]: 19.6 months | OS of patients without rash [7, 9]: 1.5 months

SMILES: CNC(=O)c1cc(Oc2ccc(NC(=O)Nc3ccc(Cl)c(C(F)(F)F)c3)cc2)ccn1 [Sorafenib, sorafenib]
Overall Survival, Median [1]: 9 Months | Progression-Free Survival, Median [1]: 9 Months | monitored cycles with recommendation to decrease the dose [2]: 6.9% | monitored cycles with recommendation to increase the prescribed dose [2]: 17.2% | monitored cycles with recommendation to suspend/suppress the drug [2]: 3.4% | % patients, Group 3 [3]: 9.1% | % patients, Group 2 [3]: 54.4% | % patients, Group 4 [3]: 9.1% | dose above which gastrointestinal absorption saturates [4]: greater than 800 mg | variability in exposure between patients, AUC [4]: 12–117% | variability in exposure between patients, apparent oral Cl [4]: 13–80% | mean interpatient variability in dose-normalized plasma concentrations (CV) ([5]; first monitored cycle): 89.7% | mean interpatient variability in dose-normalized plasma concentrations (CV) [5, 8]: 72.5% | Toxicity: Abdominal pain ([6]; in vivo): 2 (18.2) n. (%) | Toxicity: Anemia G1 ([6]; in vivo): 2 (18.2) n. (%) | Toxicity: Anemia G2 ([6]; in vivo): 1 (9.1) n. (%) | Toxicity: Diarrhea G2 ([6]; in vivo): 1 (9.1) n. (%) | patients who developed toxicity at the start of treatment ([6]; in vivo): 63.3% | patients with anemia [6, 10]: 50% | patients with grade 3 neutropenia [6, 10]: 25% | Toxicity: RI G1 [6]: 2 (18.2) n. (%) | Toxicity: Thromb. G1 ([6]; trombopenia grade 1): 1 (9.1) n. (%)
